Assay results reported in PMC7769561, “Antileishmanial activity of synthetic analogs of the naturally occurring quinolone alkaloid N-methyl-8-methoxyflindersin” (PLoS ONE, 2020).
Converted amounts (≈) assume the structure as drawn. “And” between values parts separate entries of the source, which are not always exact repeats. Equal entries are not always repeated.

Legend:
[1] = in vitro; conditions: human
Protocol: We isolated hMDMs from buffy coats donated by the Institute of Local Science (Biotechnology and Health Innovation, Bogotá, Colombia) and spun them in Lymphoprep density gradient medium (Stem-Cell, Vancouver, Canada).
Next, we added 100 μL of this culture to each quinoline alkaloid–like compound at a concentration of 200, 20, 2, 0.2, and 0.02 μg/mL. […] Cells treated with amphotericin B (Sigma-Aldrich) were used as cell apoptosis (positive) controls. Results were expressed as the medial cytotoxic concentration (CC50) using Prism GraphPad software for nonlinear regression analysis (https://www.graphpad.com/scientific-software/prism/).
(§1) All assays required at least three independently duplicated experiments. We determined cytotoxicity against hMDMs and effectivity in L. (V) panamensis promastigotes according to each treatment’s mortality (compound and concentration) using Eq 1, where the control mean fluorescence intensity (MFI) was 100% viability: Validityinhibition(%)=100−[MIFexposedcells/MIFunexposedcells×100] (1)
(§2) We used GraphPad Prism nonlinear regression analysis to estimate the percentage mortality with regard to CC50 and EC50. […] The antileishmanial activity with regard to promastigotes was classified as active according to Eq 2: Active=EC50<[LC50/2], (2) where LC50 is the median lethal concentration. We also used GraphPad Prism nonlinear regression analysis to determine the intracellular antileishmanial activity (concentration vs. response), depending on the infection (number of infected cells) and parasite burden (number of parasites/cell) obtained in experimental conditions. Parasite inhibition was estimated using Eq 3, where the plate MFI is 100% parasites: Infectioninhibition(%)=100−[(MIFexposedparasites/MIFunexposedparasites×100)] (3)

[2] = test system: L. (V.) panamensis intracellular amastigotes; test: Antileishmanial activity in L. (V.) panamensis intracellular amastigotes in hMDMs; type: cell-based, Leishmania (Viannia) panamensis; conditions: 72 h, ± SD
[3] = test system: L. (V.) panamensis intracellular amastigotes; test: as above; type: cell-based, Leishmania (Viannia) panamensis; conditions: for SI (selectivity index = CC50/EC50): CC50 hMDMs / EC50 intracellular amastigotes
Protocol: Next, 100 μL of the suspension was cultured in 96-well plates and infected with L. (V.) panamensis promastigotes (HMOM/COL/87/UA-140) at a 10:1 parasite:cell ratio. We incubated the plates in a 5% CO2 atmosphere for 4 h at 35°C. After incubation, we removed noninternalized parasites by washing the cells with 0.9% NaCl saline solution (Baxter International, Deerfield, IL, USA). The cells were incubated again for 24 h and then treated with each quinoline alkaloid–like compound at a concentration of 100, 10, 1, 0.1, and 0.01 μg/mL in a 5% CO2 atmosphere for 72 h at 36°C. Next, we quantified the percentage of infected cells using fluorescence microscopy, as previously described by Pérez-Cordero in 2011 [23], and quantified the parasite load (amount of intracellular promastigotes and amastigotes per cell) using Giemsa staining and flow cytometry (Cytomics FC 500 MPL; Beckman Coulter, Brea, CA, USA). […] Results were expressed as EC50 using Prism GraphPad software’s probit nonlinear regression analysis (https://www.graphpad.com/scientific-software/prism/).
as §2
The percentage inhibition was used to calculate EC50 by nonlinear regression analysis (fluorescence microscopy), while the parasite burden was evaluated as the percentage of intracellular promastigotes and amastigotes in 100 infected cells (Giemsa staining). […] The selectivity index (SI) was estimated using the following formula: SI=CC50/EC50

[4] = test system: L. (V.) panamensis promastigotes; test: Antileishmanial activity in L. (V.) panamensis promastigotes (resazurin, 72 h); type: cell-based, Leishmania (Viannia) panamensis; conditions: L. (V.) panamensis promastigotes, ± SD; for EC50: read-out: EC50 Intracellular promastigotes (converted)
Protocol: They were treated with quinoline alkaloid–like compounds at a concentration of 100, 10, 1, 0.1, and 0.01 μg/mL for 72 h at 26°C. Next, we determined antileishmanial activity using the resazurin method (Sigma-Aldrich). Promastigotes treated with amphotericin B (Sigma-Aldrich) and pentamidine (Sanofi-Aventis, Gentilly, France) were used as parasite death (positive) controls. Results were expressed as the medial effective concentration (EC50) using Prism GraphPad software for nonlinear regression analysis (https://www.graphpad.com/scientific-software/prism/).
as §1, §2

[5] = test system: L. (V.) panamensis intracellular amastigotes; test: Transmission electron microscopy of L. (V.) panamensis intracellular amastigotes in hMDMs; type: cell-based, Leishmania (Viannia) panamensis; set-up: Nucleus (ultrastructural alteration grade) / Vacuoles (ultrastructural alteration grade): key: -: no alteration/absence; +: low alteration/low presence; ++: alteration/moderate presence; +++: serious disturbance/abundant presence; conditions: compound at EC50, 72 h, TEM; as to Cell membrane (ultrastructural alteration grade): key: -: no alteration/absence; +: low alteration/low presence; ++: alteration/moderate presence; +++: serious disturbance/abundant presence; as to Flagellum (flagellar/axonema pocket) (grade): key: -: no alteration/absence; +: low alteration/low presence; ++: alteration/moderate presence; +++: serious disturbance/abundant presence; as to LB (lipid bodies, grade): key: -: no alteration/absence; +: low alteration/low presence; ++: alteration/moderate presence; +++: serious disturbance/abundant presence; as to Mitochondria/Kinetoplasts (ultrastructural alteration grade): key: -: no alteration/absence; +: low alteration/low presence; ++: alteration/moderate presence; +++: serious disturbance/abundant presence
Excerpt: (§3) This procedure involved including fresh resin and 100–200-nm-wide ultrafine cuts observed by TEM (100X–10.000X) (HITACHI-HU-12; Hitachi, Tokyo, Japan).

[6] = test system: L. (V.) panamensis-infected hMDMs; test: ROS generation in L. (V.) panamensis-infected hMDMs (H2DCFDA flow cytometry); type: cell-based, human; conditions: compound at EC50, 4, 24, 48 and 72 h
Protocol: (§4) Next, we detached the cells with ethylenediaminetetraacetic acid (EDTA)/trypsin (Lonza, MD, USA) and 2',7'-dichlorodihydrofluorescein diacetate (H2DCFDA) tagged on a 5 μM fluorescent tube (Sigma-Aldrich) in order to identify intracellular ROS and/or 4-amino-5-methylamino-2′,7′-difluorofluorescein (DAF-FM; Sigma-Aldrich) for NO production in a 5% CO2 atmosphere for 45 min at 37°C. ROS and NO were quantified using flow cytometry (FACS Canto II) at a wavelength of 480 nm. Untreated cells were used as negative controls, while cells treated with 0.0001% H2O2 and 1 μM phorbol myristate acetate were used as ROS production (positive) controls. LPS (10 ng/mL) and phytohemagglutinin (PHA-M) (10 μL/mL) (Invitrogen) were used as positive controls for NO production.

[7] = test system: L. (V.) panamensis-infected hMDMs; test: Transmission electron microscopy of L. (V.) panamensis-infected hMDMs; type: cell-based, human; conditions: compound at EC50, 72 h, TEM
Excerpt: as §3

[8] = test system: L. (V.) panamensis-infected hMDMs; test: NO production in L. (V.) panamensis-infected hMDMs (DAF-FM flow cytometry); type: cell-based, human
Protocol: as §4

[9] = test system: hMDMs; test: Apoptosis in noninfected and L. (V.) panamensis-infected hMDMs (annexin V/7AAD flow cytometry); type: cell-based, human; conditions: compound at EC50, 72 h
Protocol: Next, the cells were fixed with 4% paraformaldehyde for evaluating dead cells using a live/dead cell viability kit (Beckton, Dickinson and Company, Franklin Lakes, NJ, USA). hMDMs cultured without any treatment were used as viability controls, while those treated with 0.01% H2O2, 10 μg/mL of lipopolysaccharide (LPS; Sigma-Aldrich), and 1% dimethyl sulfoxide (DMSO) were used as cell mortality (positive) controls. Apoptotic and necrotic cells were quantified using flow cytometry (FACS Canto II; Becton, Dickinson and Company).

[10] = amastigotes in hMDMs, 72 h, ± SD

## C[C@@H]1[C@H](O)[C@@H](C)/C=C/C=C/C=C/C=C/C=C/C=C/C=C/[C@H](O[C@@H]2O[C@H](C)[C@@H](O)[C@H](N)[C@@H]2O)C[C@@H]2O[C@](O)(C[C@@H](O)C[C@@H](O)[C@H](O)CC[C@@H](O)C[C@@H](O)CC(=O)O[C@H]1C)C[C@H](O)[C@H]2C(=O)O [AMB, amphotericin B, reference compound]
[1]
  CC50 at 72 h: 4.5 µg/mL and 4.9 µM
[2]
  EC50: 0.4 µg/mL and 400 nM
[3]
  SI (selectivity index = CC50/EC50): 11.25
[4]
  EC50: 0.3 µg/mL and 300 nM

## COc1ccc2c3c(c(=O)n(C)c2c1)C=CC(C)(C)O3 [Compound 1, N-methyl-8-methoxyflindersin]
[5]
  Cell membrane (description): Integrity damage in membrane
  Cell membrane (ultrastructural alteration grade): +++
  Flagellum (flagellar/axonema pocket) (grade): -
  LB (lipid bodies, grade): -
  Mitochondria/Kinetoplasts (ultrastructural alteration grade): -
  Nucleus (description): Nuclear membrane damage
  Nucleus (ultrastructural alteration grade): +++
  PV (description): Individuals attached to the parasite
  PV (parasitophorous vacuoles, grade): +
  Vacuoles (description): Electrodense acidocalcisome type
  Vacuoles (ultrastructural alteration grade): ++
[6]
  ROS generation compared to infected control cells: no significant variations
[7]
  Cell membrane (ultrastructural modification grade): -
  LB (lipid bodies, grade): -
  Mitochondria (ultrastructural modification grade): +
  Nucleus (ultrastructural modification grade): -
  PV (description): Individuals, attached to the parasite
  PV (parasitophorous vacuoles, grade): +
  Parasites (grade): +
  Vacuoles (description): Double membrane (autophagic-digestives)
  Vacuoles (ultrastructural modification grade): ++
[8]; compound at EC50, 24, 48 and 72 h
  NO production compared to untreated infected hMDMs: increase in NO production
[8]; compound at EC50, 72 h posttreatment
  NO production: increase in NO production
[3]
  SI (selectivity index = CC50/EC50): 5.87
[3]; [10]
  EC50: 29.2 µM
  EC50 Intracellular amastigotes: 7.4 ± 1.95 µg/mL (≈ 27.3 µM)
[3]; intracellular amastigotes, class by EC50
  Antileishmanial activity class: high (high if EC50 < 25 μg/mL)
[4]
  EC50 Intracellular promastigotes: 9.9 ± 3 µg/mL (≈ 36.5 µM)
  EC50: 36.5 µM
[9]; L. (V.) panamensis-infected hMDMs
  Percentage of apoptotic cells (annexin V+ 7AAD–, Q3): 41.3%
[9]; noninfected (basal) hMDMs
  Percentage of apoptotic cells (annexin V+ 7AAD–, Q3): 20.2%

## Cc1cc(=O)[nH]c2ccccc12 [Compound 4, 4-methyl-2-(1H)-quinolinone]
[1]
  CC50 at 72 h: 95.2 µg/mL and 391 µM
[2]
  EC50: 57.1 µg/mL and 256 µM
[3]
  SI (selectivity index = CC50/EC50): 1.66
[4]
  EC50: 62.3 µg/mL and 256 µM
